Experimental data from patent publication US20220274961A1, “SUBSTITUTED FUSED BI- OR TRI- HETEROCYCLIC COMPOUNDS AS EHMT2 INHIBITORS” (priority 2016, published 2022).

These molecules were tested against T1, EHMT2 (Homo sapiens, UniProt Q96KQ7) (assay: MDA-MB-231 H3K9me2 in-cell Western assay (EHMT2 ICW)). Settings: MDA-MB-231 cells, H3K9me2 in-cell Western; read-out: EHMT2 ICW (IC50 μM).
T1 construct: endogenous in cells; host or cells: MDA-MB-231 (ATCC)
T1 sequence (Q96KQ7 1-1210): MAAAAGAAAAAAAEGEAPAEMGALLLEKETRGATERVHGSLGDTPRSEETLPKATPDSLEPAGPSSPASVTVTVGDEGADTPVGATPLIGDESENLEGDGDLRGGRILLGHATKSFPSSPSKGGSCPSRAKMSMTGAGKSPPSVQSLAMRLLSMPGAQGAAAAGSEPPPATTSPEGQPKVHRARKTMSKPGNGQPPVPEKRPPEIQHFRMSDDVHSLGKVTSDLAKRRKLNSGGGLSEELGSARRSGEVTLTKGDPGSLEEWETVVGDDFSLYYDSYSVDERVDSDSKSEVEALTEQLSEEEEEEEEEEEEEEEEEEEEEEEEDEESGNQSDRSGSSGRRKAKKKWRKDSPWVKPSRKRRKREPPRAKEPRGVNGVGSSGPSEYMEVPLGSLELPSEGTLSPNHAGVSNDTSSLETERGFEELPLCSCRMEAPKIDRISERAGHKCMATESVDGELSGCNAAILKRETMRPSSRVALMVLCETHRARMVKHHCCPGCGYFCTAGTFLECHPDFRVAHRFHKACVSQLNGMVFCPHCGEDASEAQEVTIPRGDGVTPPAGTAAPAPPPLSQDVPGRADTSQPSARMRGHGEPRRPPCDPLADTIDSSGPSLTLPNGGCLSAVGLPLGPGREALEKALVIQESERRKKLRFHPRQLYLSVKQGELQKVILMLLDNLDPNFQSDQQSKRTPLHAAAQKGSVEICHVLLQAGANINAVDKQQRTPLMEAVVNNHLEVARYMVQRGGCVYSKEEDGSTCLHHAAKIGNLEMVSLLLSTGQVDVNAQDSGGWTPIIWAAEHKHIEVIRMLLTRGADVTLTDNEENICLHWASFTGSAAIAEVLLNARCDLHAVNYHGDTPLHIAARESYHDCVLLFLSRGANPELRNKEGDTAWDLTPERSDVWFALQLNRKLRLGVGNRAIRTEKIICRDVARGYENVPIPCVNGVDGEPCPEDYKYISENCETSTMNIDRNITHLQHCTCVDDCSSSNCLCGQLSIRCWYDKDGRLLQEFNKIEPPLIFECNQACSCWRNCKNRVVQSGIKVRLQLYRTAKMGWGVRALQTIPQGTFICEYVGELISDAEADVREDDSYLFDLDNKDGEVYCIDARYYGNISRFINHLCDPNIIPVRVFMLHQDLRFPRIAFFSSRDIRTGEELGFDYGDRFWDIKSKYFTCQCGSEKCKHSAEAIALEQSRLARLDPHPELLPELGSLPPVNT
Assay type: cell-based
Description: MDA-MB-231 cell line was purchased from ATCC (Manassas, Va., USA). RPMI/Glutamax medium, Penicillin-Streptomycin, Heat Inactivated Fetal Bovine Serum, and D-PBS were purchased from Life Technologies (Grand Island, N.Y., USA). Odyssey blocking buffer, 800CW goat anti-mouse IgG (H+L) antibody, and Licor Odyssey Infrared Scanner were purchased from Licor Biosciences, Lincoln, Nebr., USA. H3K9me2 mouse monoclonal antibody (Cat #1220) was purchased from Abcam (Cambridge, Mass., USA). 16% Paraformaldehyde was purchased from Electron Microscopy Sciences, Hatfield, Pa., USA). MDA-MB-231 cells were maintained in complete growth medium (RPMI supplemented with 10% v/v heat inactivated fetal bovine serum) and cultured at 37° C. under 5% CO2. UNC0638 was purchased from Sigma-Aldrich (St. Louis, Mo., USA).
General Procedure for MDA-MB-231 HEK9me2 in-cell Western Assay. Compound (100 nL) was added directly to 384-well cell plate. MDA-MB-231 cells (ATCC) were seeded in assay medium (RPMI/Glutamax supplemented with 10% v/v heat inactivated fetal bovine serum and 1% Penicillin/Streptomycin, Life Technologies) at a concentration of 3,000 cells per well to a Poly-D-Lysine coated 384-well cell culture plate with 50 μL per well. Plates were incubated at 37° C., 5% CO2 for 48 hours (BD Biosciences 356697). Plates were incubated at room temperature for 30 minutes and then incubated at 37° C., 5% CO2 for additional 48 hours. After the incubation, 50 μL per well of 8% paraformaldehyde (Electron Microscopy Sciences) in PBS was added to the plates and incubated at room temperature for 20 minutes. Plates were transferred to a Biotek 406 plate washer and washed 2 times with 100 μL per well of wash buffer (1×PBS containing 0.3% Triton X-100 (v/v)). Next, 60 μL per well of Odyssey blocking buffer (Licor Biosciences) was added to each plate and incubated for 1 hour at room temperature. Blocking buffer was removed and 20 μL of monoclonal primary antibody α-H3K9me2 (Abcam) diluted 1:800 in Odyssey buffer with 0.1% Tween 20 (v/v) were added and plates were incubated overnight (16 hours) at 4° C. Plates were washed 5 times with 100 μL per well of wash buffer. Next 20 μL per well of secondary antibody was added (1:500 800CW donkey anti-mouse IgG (H+L) antibody (Licor Biosciences), 1:1000 DRAQ5 (Cell Signaling Technology) in Odyssey buffer with 0.1% Tween 20 (v/v)) and incubated for 1 hour at room temperature. The plates were washed 5 times with […] wash buffer then 2 times with 100 μL per well of water. Plates were allowed to dry at room temperature then imaged on a Licor Odyssey Infrared Scanner (Licor Biosciences) which measured integrated intensity at 700 nm and 800 nm wavelengths. Both 700 and 800 channels were scanned.
% Inhibition Calculation. First, the ratio for each well was determined by:
Each plate included fourteen control wells of DMSO only treatment (Minimum Inhibition) as well as fourteen control wells (background wells) for maximum inhibition treated with control compound UNC0638 (Background wells).
The average of the ratio values for each well was calculated and used to determine the percent inhibition for each test well in the plate. Control compound was serially diluted three-fold in DMSO for a total of 10 test concentrations beginning at 1 μM. Percent inhibition was calculated as: […]
IC50 curves were generated using triplicate wells per concentration of compound. The IC50 is the concentration of compound at which measured methylation is inhibited by 50% as interpolated from the dose response curves. IC50 values were calculated using a non-linear regression (variable slope-four parameter fit model) with by the following formula:
where Top is fixed at 100% and Bottom is fixed to 0%, [I]=concentration of inhibitor, IC50=half maximal inhibitory concentration, and n=Hill Slope.

| IC50 [µM] | Structure (SMILES) |
| --- | --- |
| 0.1 to 1 | CNC1=Nc2cc(CNCCN3CCCC3)c(OC)cc2C12CCC2 [Compound 70] |
| 1 to 10 | CCNC1=Nc2cc(CNCCN3CCCC3)c(OC)cc2C12CCC2 [Compound 71] |
| 1 to 10 | CCNC1=Nc2cc(CNCCN3CCC3)c(OC)cc2C12CCC2 [Compound 72] |
| 0.1 to 1 | CCCNC1=Nc2cc(CNCCN3CCCC3)c(OC)cc2C12CCC2 [Compound 73] |
| < 0.1 | CNC1=Nc2cc(C#CCN3CCCC3)c(OC)cc2C12CCC2 [Compound 74] |
| < 0.1 | CNC1=Nc2cc(C#CCN3CCCCC3)c(OC)cc2C12CCC2 [Compound 75, 5′-methoxy-N-methyl-6′-(3-(piperidin-1-yl)prop-1-yn-1-yl)spiro[cyclobutane-1,3′-indol]-2′-amine] |
| 1 to 10 | COc1cc2c(cc1CNCCN1CCCC1)N=C(NC1CCOCC1)C21CCC1 [Compound 76] |
| 0.1 to 1 | CNC1=Nc2cc(C#CC(C)N3CCCC3)c(OC)cc2C12CCC2 (stereo not drawn) [Compound 84] |
| < 0.1 | CNC1=Nc2cc(C#C[C@H](C)N3CCCC3)c(OC)cc2C12CCC2 [Compound 85] |
| 0.1 to 1 | CNC1=Nc2cc(C#C[C@@H](C)N3CCCC3)c(OC)cc2C12CCC2 [Compound 86] |
| 0.1 to 1 | CNC1=Nc2cc(C#CC(C)N3CCCCC3)c(OC)cc2C12CCC2 (stereo not drawn) [Compound 92] |
| 0.1 to 1 | COCCNC1=Nc2cc(C#CCN3CCCCC3)c(OC)cc2C12CCC2 [Compound 99] |
| 1 to 10 | CNC1=Nc2cc(C#CCN3CCC(F)C3)c(OC)cc2C12CCC2 (stereo not drawn) [Compound 100] |
| 1 to 10 | CNc1nc2cc(CNCCN3CCCC3)c(Cl)cc2n1C(C)C [Compound 138] |
| 1 to 10 | CNc1nc2cc(CNCCN3CCCC3)c(C)cc2n1C(C)C [Compound 139] |
